The test system of assay [1] is genotype 1b HCV subgenomic replicon (R-1 cell line). As to the kind of experiment: HCV replication (HCV RNA by real-time RT-PCR, NS5B protein by Western blot) in R-1 subgenomic replicon cells. The class given is cell-based, hepatitis C virus genotype 1b. Particulars: for decrease of HCV RNA titers with respect to DMSO control: R-1 cell line, 20 μM, 48 hours. The text has this:
In order to check a PRK2 phosphorylation inhibition effect of the novel inhibitors obtained in Example 1, R-1 cell line harboring HCV subgenomic replicons was used.
The R-1 cell line was comprised of cis-acting RNA elements of 5′ and 3′-end untranslated regions (UTR) essential for replication of HCV RNA, a selection marker inserted to select a replicated RNA into a portion from which a structural protein coding site was removed, and a non-structural protein (NS3-NS5B)-coding gene required for replication. In the replicon, the selection marker was expressed by the HCV 5′-UTR and internal ribosome entry site (IRES) as a part of a coding gene of a core protein as a structural protein and capsid protein, and HCV non-structural proteins were expressed by IRES of EMCV. In order to obtain replicon cells, a HCV subgenomic replicon RNA was obtained by means of in vitro transcription by using a T7 RNA polymerase, free ribonucleotide was removed by using a spin column, and introduced into a hepatocellular carcinoma cell line by electroporation. In the presence of G418, a stable cell line, i.e. a cell line showing a resistance to G418 through replication of HCV subgenome, was obtained. Expression of the HCV non-structural proteins in this cell line was analyzed by Western blot to confirm that replication was being carried out, and the R-1 cell line was constructed. It was observed that an HCV RNA copy number was about 10^7 copies/mL by a quantitative real-time PCR analysis using a TaqMan probe. The R-1 cell line was a cell line in which HCV RNA replication was being carried out, and thus it could be used to evaluate an HCV replication inhibition effect of a PRK2 activity inhibitor.
Then, after the R-1 cell line was treated with each of 5 screened PRK2 inhibitors, HA1077 currently and clinically used as a PRK2 activity inhibitor, and Y27632 having a PRK2 activity inhibition effect at a final concentration of 20 μM for 48 hours, levels of HCV NS5B protein and HCV RNA in cell lysates (50 μg) were analyzed by Western blot and real-time RT-PCR.
(§1) To do so, after the two cell lines were treated with the compound #17 at higher concentrations (60 and 100 μM) than 20 μM for 48 hours, an HCV RNA genome level was checked by a real-time RT-PCR analysis. A value was a mean±standard deviation (SD) of three independent measurements. HCV RNA titer was quantified by real-time PCR analysis. Three independent experiments were performed in triplicate.
5 derivatives (#18 to #22: refer to FIG. 2) were produced based on the inhibitor #17 showing the best effect. After the R-1 cell line was treated with each of these inhibitors or HA1077 and Y27632 at a final concentration of 20 μM for 48 hours, an HCV RNA genome level was checked by a real-time RT-PCR analysis and expressed in % with respect to a control treated with DSMO. Three independent experiments were conducted repeatedly three times. Data were expressed by mean±SD of the three experiments.
Total RNA was extracted from R-1 or HCV (JFH1)-infected cells using TRIzol LS reagent (Invitrogen, Carlsbad, Calif., USA) and purified according to the manufacturer's instructions. HCV RNA levels were quantified by RT-PCR using a primer pair and TaqMan probe targeting a region within the HCV 5′-UTR as described previously. Cellular glyceraldehyde-3-phosphate dehydrogenase was used as an internal control. Assays were performed using the DyNAmo Probe 2-step qRT-PCR Kit (Finnzymes, Espoo, Finland) and a CHROMO4 continuous fluorescence detector (Bio-Rad, Hercules, Calif., USA), according to the manufacturer's instructions.
(§2) Therefore, anti-HCV activity of 17-DMAG in the R-1 cell was tested at a level lower than 50 nM. To do so, the R-1 cell was treated with a vehicle (0.25% DMSO) or 17-DMAG for 72 hours and the cell lysates (50 μg) and antibodies specific to the proteins were immunoblotted to measure levels of the proteins. An anti-α-tubulin antibody (lower end panel) was used as an internal loading control. […]

In the next assay the test system is HCV NS5B. As to the kind of experiment: NS5B phosphorylation in Huh7TR-NS cell (anti-p-Ser immunoprecipitation, anti-NS5B immunoblot). The class given is cell-based, hepatitis C virus. The conditions noted are these: 17-DMAG 50 nM or HA1077 20 μM, 48 hours. The procedure: The human hepatoma stable cell lines Huh7TR-4 and Huh7TR-NS [17], which express the tetracycline repressor and the HCV NS proteins (NS3-NS5) in a tetracycline-inducible manner, respectively, were maintained in the presence of blasticidin S (10 μg/mlL and Zeocine (100 μg/mL). NS protein expression in Huh7TR-NS was induced by addition of 1 μg/mL tetracycline for 24 h. The Huh7 cell-derived cell line R-1, supporting stable, autonomous replication of genotype 1b HCV subgenomic replicon RNA, was described previously. 17-DMAG, the PRK2 inhibitor, HA1077, and the inhibitor of phosphatidylinositol 3-kinase (PI3K), LY294002, were obtained from Sigma-Aldrich (St. Louis, Mo., USA) and Calbiochem Inc. (La Jolla, Calif., USA), and Biomol (Plymouth Meeting, Pa., USA), respectively. IFN-α was purchased from Sigma-Aldrich (1-4276).
For co-immunoprecipitation experiment, the cells were resuspended in lysis buffer A (100 mM Tris-HCl, pH 8.0, 150 mM NaCl, 1% Triton X-100, 10 mM NaF, 1 mM Na3VO4, 17.5 mM β-glycerophosphate) supplemented with an EDTA-free protease inhibitor cocktail (Roche Applied Science, Indianapolis, Ind., USA) and incubated on ice for 30 min. […]
Then, treatment with 17-DMAG (50 nM) or HA1077 (20 μM), a PRK2 inhibitor, was carried out for 48 hours. […] A case without treatment with an inhibitor was expressed as (−).
(In western blotting, separated proteins are transferred to a membrane and probed.)

Assay [2] concerns the target T1, PRK2 (Homo sapiens, UniProt Q16513).
T1 construct: endogenous in cells; host or cells: R-1 (Huh7-derived HCV replicon cells) and Huh7
As to the kind of experiment: PRK2 phosphorylation (Thr816) and PRK2 level in R-1 cells by Western blot. The class given is cell-based. Particulars: R-1 cell, 100 IU/ml, hourly for 6 hours.
Method: After the R-1 cell line was treated with the PRK2 inhibitor at a final concentration of 10 or 20 μM for 48 hours, phosphorylation or not of Thr^816 residue essential for activity of PRK2 was analyzed by Western blot using a phospho-PRK2 antibody to measure an expression level of phosphorylated PRK2. Immunoblotting using an anti-α-tubulin antibody was carried out to check whether or not the same amount of protein was loaded.
Then, in order to check whether or not IFN-α affected a PDK1-PRK2 signaling pathway, the R-1 cell was treated with 100 IU/ml of IFN-α hourly for 6 hours. SDS-PAGE was carried out to the cell lysates, and immunoblotting was carried out. The immunoblotting with anti-α-tubulin antibody was used as an internal control for loading. A representative result from one of the three independent experiments showing a similar result was illustrated.

Another assay has as its system PDK1. Description: PDK1 level and activation in R-1 cell by immunoblotting. The class given is cell-based. The conditions noted are these: 100 IU/ml, hourly for 6 hours.
Source text: Total cell lysates from cells treated with inhibitors or IFN-α by using antibodies to PDK1, p-PDK1 (S241), PRK2, and p-PRK2 (T816) (products of Cell Signaling Technology, Inc., Beverly, Mass., USA) was used for immunoblotting. In order to detect PKC isoforms α, β, and γ, a polyclonal antibody to a consensus sequence present in three PKC (protein kinase C) isoforms α, β and γ (anti-pan-PKC; Zymed Laboratories, San Francisco, Calif., USA) was used. An anti-α-tubulin antibody (Oncogene Research Products, Cambridge, Mass., USA) was carried out in immunoblotting for checking whether or not the same amount of protein was loaded.
as §2, with “control. The levels of the proteins were measured by densitometric analysis of immunoblot, and the phosphorylated amounts and relative intensities calculated with respect to PDK1 and PDK2 were converted with respect to α-tubulin signals and then quantitated. As a result of three independent experiments showing similar results, a representative blot picture was illustrated.” for “control.”

In assay [3] the test system is PRK2. As to the kind of experiment: PRK2 level in Huh7 cell by immunoblotting. The class given is cell-based. Particulars: 100 IU/ml IFN-α.
Assay [4] relates to genotype 2a HCV (JFH1)-infected Huh7 cells. Description: HCV RNA level in Huh7 cells infected with HCV (JFH1). The assay is classed as cell-based, hepatitis C virus genotype 2a. The conditions noted are these: JFH1-infected Huh7 cell, 100 IU/mL alone, 72 hours. The procedure: as §1
Full-length, infectious HCV RNA of the genotype 2a HCV clone JFH1 was prepared by in vitro transcription using the MEGAscript T7 kit (Ambion, Austin, Tex., USA) and electroporated into Huh7 cells as described previously. Briefly, at 72 h post electroporation, culture medium was collected, cleared by low-speed centrifugation, and passed through a 0.45-μm filter (Millipore, Billerica, Mass., USA) before being used for infection of Huh7 cells. Cells were infected with HCV at a multiplicity of infection of 0.3 by adsorption for 3 h with periodic rocking, then washed three times with phosphate-buffered saline (PBS) and maintained in complete DMEM. […]
Total RNA was extracted from R-1 or HCV (JFH1)-infected cells using TRIzol LS reagent (Invitrogen, Carlsbad, Calif., USA) and purified according to the manufacturer's instructions. HCV RNA levels were quantified by RT-PCR using a primer pair and TaqMan probe targeting a region within the HCV 5′-UTR as described previously. […] Assays were performed using the DyNAmo Probe 2-step qRT-PCR Kit (Finnzymes, Espoo, Finland) and a CHROMO4 continuous fluorescence detector (Bio-Rad, Hercules, Calif., USA), according to the manufacturer's instructions.
In order to analyze whether or not 17-DMAG can inhibit replication in a cell infected with HCV, an experiment was carried out with the genotype 2a HCV infectious clone JFH1, which produces infectious virions in Huh7 or Huh7-derived cell lines. […] After 72 hours, total cellular RNA was extracted and HCV remaining in the infected cell was analyzed by quantitative RT-PCR.

The next assay deals with recombinant active PRK2 (Homo sapiens, UniProt Q16513). Description: In vitro kinase assay: recombinant PRK2 phosphorylating HCV NS5B. The class given is biochemical. The conditions noted are these: gamma-32P ATP and 100 μM ATP, autoradiography. How it is done: Then, in order to test an HCV NS5B protein phosphorylation inhibition effect of the screened novel PRK2 inhibitor, in vitro kinase assay was carried out.
Using a recombinant active PRK2 and purified HCV NS5B protein as substrates, the screened inhibitors #11 and #17 were treated in the presence of gamma-^32P ATP and 100 μM ATP. The reaction mixture was separated by SDS-PAGE (8% gel), and a result thereof was checked by autoradiography.
Finally, PRK2 and HCV NS5B phosphorylation inhibition effects of the compounds #18, #19, #20, #21 and #22 as the derivatives of the compound #17 were analyzed through in vitro kinase assay.
A 1 μM recombinant PRK2 and 10 μM HCV NS5B were phosphorylated for 30 minutes in the presence of 10 μCi γ-^32P ATP and 100 μM ATP. The reaction mixture was separated by SDS-PAGE (8% gel), and a result thereof was checked by autoradiography.

T1 sequence (Q16513 whole entry): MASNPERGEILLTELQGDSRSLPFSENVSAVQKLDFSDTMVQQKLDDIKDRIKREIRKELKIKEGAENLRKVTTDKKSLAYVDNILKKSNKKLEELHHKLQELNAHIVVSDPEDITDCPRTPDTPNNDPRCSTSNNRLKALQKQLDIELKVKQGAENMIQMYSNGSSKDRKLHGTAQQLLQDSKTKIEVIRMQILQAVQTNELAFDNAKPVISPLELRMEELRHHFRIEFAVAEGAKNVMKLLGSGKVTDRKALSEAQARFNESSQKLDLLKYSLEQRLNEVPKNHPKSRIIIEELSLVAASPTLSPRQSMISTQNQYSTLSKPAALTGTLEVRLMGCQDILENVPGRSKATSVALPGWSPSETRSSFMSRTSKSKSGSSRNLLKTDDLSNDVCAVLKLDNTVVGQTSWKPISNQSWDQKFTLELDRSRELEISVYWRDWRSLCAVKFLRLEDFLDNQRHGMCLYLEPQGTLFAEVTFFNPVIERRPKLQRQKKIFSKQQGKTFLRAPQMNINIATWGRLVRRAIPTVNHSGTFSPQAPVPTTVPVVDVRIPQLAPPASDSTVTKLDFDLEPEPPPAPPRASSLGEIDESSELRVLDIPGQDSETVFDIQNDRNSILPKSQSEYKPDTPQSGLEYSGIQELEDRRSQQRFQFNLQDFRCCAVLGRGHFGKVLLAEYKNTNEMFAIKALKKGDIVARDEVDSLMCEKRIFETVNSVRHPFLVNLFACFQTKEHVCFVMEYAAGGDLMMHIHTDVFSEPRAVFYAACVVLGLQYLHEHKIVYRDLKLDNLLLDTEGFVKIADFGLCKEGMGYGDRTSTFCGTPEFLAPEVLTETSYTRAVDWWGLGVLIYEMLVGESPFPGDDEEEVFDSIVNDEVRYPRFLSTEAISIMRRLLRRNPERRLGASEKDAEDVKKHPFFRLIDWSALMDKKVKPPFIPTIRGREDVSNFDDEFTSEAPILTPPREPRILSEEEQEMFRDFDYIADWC
recombinant active PRK2, sequence (Q16513 whole entry): as above

On to `O=S(=O)(c1cccc2cnccc12)N1CCCNCC1` [HA1077], for which, in assay [1], the “decrease of HCV RNA titers with respect to DMSO control” value (“decrease of HCV RNA titers” for short) was 40%. In assay [1] (R-1 cell, HA1077 20 μM combined with IFN-α 100 IU/ml), the “anti-HCV activity in combined treatment with IFN-α” value was “anti-HCV activity of IFN-α was improved”. Besides, the NS5B phosphorylation entry in the assay on HCV NS5B is on record as “also inhibited NS5B phosphorylation”.

Take `C[C@@H](N)[C@H]1CC[C@H](C(=O)Nc2ccncc2)CC1` [Y27632]: the “decrease of HCV RNA titers” value in assay [1] came out at 49%.

Regarding `O=C(Nc1ccncc1)c1ccc[nH]c1=O` [compound 20, 2-oxo-N-(4-pyridinyl)-1,2-dihydro-3-pyridinecarboxamide], in assay [1], the “decrease of HCV RNA titers” value is reported as “approximately 60%”.

Consider IFN-α, for which the “p-PRK2 content or PRK2 content” value on PRK2 [2] is on record as “any significant change in p-PRK2 content or PRK2 content was not observed”. Also, the “decrease of content of HCV RNA” value in assay [1] (R-1 cell, 100 IU/ml alone, 72 hours) was “approximately 80%”. For the same compound, the “activation of PDK1” value with PDK1 was “any change in activation of PDK1 in the treated cell was not observed”. Besides, the “PDK1 and PRK2 contents and activation” value in the assay on PRK2 [3] is “A similar result was observed”. In assay [4], the “inhibition of virus RNA replication” value is on record as “about 90%”.

Consider `O=C(Nc1ccc2[nH]cnc2c1)C1CCCCC1` [compound #11, cyclohexanecarboxylic acid (1H-benzoimidazole-5-yl)-amide], for which the “inhibition of in vitro phosphorylation of HCV NS5B protein” value on recombinant active PRK2 is “inhibit phosphorylation of HCV NS5B protein”.

The values are drawn from patent US9249159B2, “Composition for treating hepatitis C virus, regulating phosphorylation of replicase” (Industry-Academic Cooperation Foundation, Yonsei University, priority 2011, dated 2016).
